Assay results: patent US9381200B2, “Nitrogen containing compounds” (WOCKHARDT LIMITED, priority 2011, dated 2016)
≈ marks a conversion by molar mass, not a printed value. Read-outs that look alike come from different tables or passages of the source.

Tests used:
Format in all cases: cell-based
[1] = tested on: E. coli M 50; assay: Antibacterial activity (MIC), agar dilution per CLSI; details: Escherichia coli, read-out: MIC
Outline: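 Overnight bacterial cultures, suitably diluted, were inoculated onto agar media containing doubling dilutions of test compound. Plates were incubated 16-20 hours at 35±2° C. in ambient air and scored for growth or no growth following CLSI recommendations. MIC is reported in mcg/ml.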

[2] = tested on: E. coli NCTC 13351; assay: as above; details: Escherichia coli, NCTC13351, Table 3, E. coli NCTC 13351 expressing ESBL, 16-20 hours, 35±2° C., read-out: MIC
Outline: (§1)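 Agar dilution MIC per CLSI: overnight cultures diluted and inoculated onto agar containing doubling dilutions of compound. Growth/no growth read after 16-20 h at 35±2° C in ambient air. Strains express ESBL.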

[3] = tested on: E. coli 7 MP; assay: as above; details: Escherichia coli, Table 3, E. coli 7 MP expressing ESBL, read-out: MIC
Outline: as §1

[4] = tested on: E. Coli W 13351; assay: Antibacterial activity (MIC) against MDR Gram negative strains; details: Escherichia coli; Table 4; E. Coli W 13351, Class A ESBL, MDR; read-out: MIC
Protocol: (§2) The biological activity of representative compounds according to the invention against various bacterial strains was investigated. In a typical study, overnight grown bacterial cultures were diluted appropriately and inoculated on the agar media containing doubling dilutions of the test compounds. Observation for growth or no growth was performed after 16-20 hours of incubation at 35±2° C. in ambient air. The overall procedure was performed as per Clinical and Laboratory Standards Institute (CLSI) recommendations (Clinical and Laboratory Standards Institute (CLSI), Performance Standards for Antimicrobial Susceptibility Testing, 20th Informational Supplement, M 100-S20, Volume 30, No. 1, 2010).
(§3) The activities are expressed as MICs (mcg/ml).

[5] = tested on: P. aeruginosa ATCC 27853; assay: as above; details: Pseudomonas aeruginosa, ATCC27853; Table 5; P. aeruginosa ATCC 27853; read-out: MIC
Protocol: as §2, §3

[6] = tested on: E. Coli M 44; assay: as above; details: Escherichia coli; Table 5; E. Coli M 44, Class B ESBL, MDR; read-out: MIC
Protocol: as §2, §3

[7] = tested on: E. Coli W 13353; assay: as above; details: Escherichia coli; Table 4; E. Coli W 13353, Class A ESBL, MDR; read-out: MIC
Protocol: as §2, §3

[8] = tested on: E. Coli B 89; assay: as above; details: Escherichia coli; Table 4; E. Coli B 89, Class C ESBL, MDR; read-out: MIC
Protocol: as §2, §3

[9] = tested on: K penumoniae H 525; assay: as above; details: Table 4; K penumoniae H 525, KPC ESBL, MDR; read-out: MIC
Protocol: as §2, §3

[10] = tested on: E. Coli M 3; assay: as above; details: Escherichia coli; Table 5; E. Coli M 3, Class B ESBL, MDR; read-out: MIC
Protocol: as §2, §3

[11] = tested on: P. aeruginosa Ps 21; assay: as above; details: Pseudomonas aeruginosa, PS21; Table 5; P. aeruginosa Ps 21; read-out: MIC
Protocol: as §2, §3

[12] = tested on: K penumoniae H 523; assay: as above; details: Table 4; K penumoniae H 523, KPC ESBL, MDR; read-out: MIC
Protocol: as §2, §3

[13] = tested on: E. Coli W 13352; assay: as above; details: Escherichia coli; Table 4; E. Coli W 13352, Class A ESBL, MDR; read-out: MIC
Protocol: as §2, §3

[14] = tested on: K penumoniae H 521; assay: as above; details: Table 4; K penumoniae H 521, KPC ESBL, MDR; read-out: MIC
Protocol: as §2, §3

[15] = tested on: P. aeruginosa Ps 32; assay: as above; details: Pseudomonas aeruginosa, PS32; Table 5; P. aeruginosa Ps 32; read-out: MIC
Protocol: as §2, §3

[16] = tested on: K. penumoniae S 48; assay: as above; details: Table 5; K. penumoniae S 48, Class B ESBL, MDR; read-out: MIC
Protocol: as §2, §3

[17] = tested on: E. Coli H 484; assay: as above; details: Escherichia coli; Table 4; E. Coli H 484, Class C ESBL, MDR; read-out: MIC
Protocol: as §2, §3

[18] = tested on: A. baumannii J-143; assay: Antibacterial activity of sulbactam / Cefepime combinations with a compound of the invention (MIC); details: Acinetobacter baumannii, J143; Table 8; A. baumannii J-143; Cefepime alone or with sulbactam and/or compound at fixed concentrations as named in the composition; read-out: MIC of Cefepime
Protocol: as §2

[19] = tested on: A. baumannii 1460648; assay: as above; details: Acinetobacter baumannii; Table 8; A. baumannii 1460648; Cefepime alone or with sulbactam and/or compound at fixed concentrations as named in the composition; read-out: MIC of Cefepime
Protocol: as §2

[20] = tested on: A. baumannii S-334; assay: as above; details: Acinetobacter baumannii, S334; Table 8; A. baumannii S-334; Cefepime alone or with sulbactam and/or compound at fixed concentrations as named in the composition; read-out: MIC of Cefepime
Protocol: as §2

[21] = tested on: A. baumannii G-165; assay: as above; details: Acinetobacter baumannii, G165; Table 8; A. baumannii G-165; Cefepime alone or with sulbactam and/or compound at fixed concentrations as named in the composition; read-out: MIC of Cefepime
Protocol: as §2

[22] = M50, Table 3, E. coli M 50 expressing ESBL, agar dilution
[23] = M50, Table 4, E. Coli M 50, Class C ESBL, MDR

| Structure (SMILES) | MIC [1, 22] | MIC [1, 23] | MIC [2] | MIC [3] | MIC [4] | MIC [5] | MIC [6] | MIC [7] | MIC [8] | MIC [9] | MIC [10] | MIC [11] | MIC [12] | MIC [13] | MIC [14] | MIC [15] | MIC [16] | MIC [17] | further results |
| --- | --- | --- | --- | --- | --- | --- | --- | --- | --- | --- | --- | --- | --- | --- | --- | --- | --- | --- | --- |
| NCCCC(=O)NNC(=O)[C@H]1CC[C@@H]2CN1C(=O)N2OS(=O)(=O)O (relative stereo) [Example 9, trans-sulfuric acid mono-[2-(N′-(4-amino-butanoyl)-hydrazinocarbonyl)-7-oxo-1,6-diaza-bicyclo[3.2.1]oct-6-yl]ester] | 2 µg/mL (≈ 5.47 µM) | 1 µg/mL (≈ 2.74 µM) | 1 µg/mL (≈ 2.74 µM) | 4 µg/mL (≈ 10.9 µM) | 1 µg/mL (≈ 2.74 µM) | 8 µg/mL (≈ 21.9 µM) | 0.5 µg/mL (≈ 1.37 µM) | 1 µg/mL (≈ 2.74 µM) | 1 µg/mL (≈ 2.74 µM) | 0.5 µg/mL (≈ 1.37 µM) | 2 µg/mL (≈ 5.47 µM) | 8 µg/mL (≈ 21.9 µM) | 0.5 µg/mL (≈ 1.37 µM) | 1 µg/mL (≈ 2.74 µM) | 1 µg/mL (≈ 2.74 µM) | 16 µg/mL (≈ 43.8 µM) | 1 µg/mL (≈ 2.74 µM) | 2 µg/mL (≈ 5.47 µM) | – |
| O=C(NNC(=O)[C@H]1CC[C@@H]2CN1C(=O)N2OS(=O)(=O)O)C1CCNCC1 (relative stereo) [Example 13, trans-sulfuric acid mono-[2-(N′-(piperidin-4-carbonyl)-hydrazinocarbonyl)-7-oxo-1,6-diaza-bicyclo[3.2.1]oct-6-yl]ester] | 1 µg/mL (≈ 2.55 µM) | 1 µg/mL (≈ 2.55 µM) | 1 µg/mL (≈ 2.55 µM) | 2 µg/mL (≈ 5.11 µM) | 1 µg/mL (≈ 2.55 µM) | 32 µg/mL (≈ 81.8 µM) | 1 µg/mL (≈ 2.55 µM) | 1 µg/mL (≈ 2.55 µM) | 1 µg/mL (≈ 2.55 µM) | 1 µg/mL (≈ 2.55 µM) | 1 µg/mL (≈ 2.55 µM) | 32 µg/mL (≈ 81.8 µM) | 0.5 µg/mL (≈ 1.28 µM) | 2 µg/mL (≈ 5.11 µM) | 1 µg/mL (≈ 2.55 µM) | 16 µg/mL (≈ 40.9 µM) | 1 µg/mL (≈ 2.55 µM) | 4 µg/mL (≈ 10.2 µM) | – |
| O=C(CN1CCNCC1)NNC(=O)[C@H]1CC[C@@H]2CN1C(=O)N2OS(=O)(=O)O (relative stereo) [Example 19, trans-sulfuric acid mono-[2-(N′-(piperazin-4-yl-acetyl)-hydrazinocarbonyl)-7-oxo-1,6-diaza-bicyclo[3.2.1]oct-6-yl]ester] | 1 µg/mL (≈ 2.46 µM) | 2 µg/mL (≈ 4.92 µM) | 1 µg/mL (≈ 2.46 µM) | 2 µg/mL (≈ 4.92 µM) | 2 µg/mL (≈ 4.92 µM) | 32 µg/mL (≈ 78.7 µM) | 1 µg/mL (≈ 2.46 µM) | 2 µg/mL (≈ 4.92 µM) | 1 µg/mL (≈ 2.46 µM) | 1 µg/mL (≈ 2.46 µM) | 1 µg/mL (≈ 2.46 µM) | > 32 µg/mL | 1 µg/mL (≈ 2.46 µM) | 2 µg/mL (≈ 4.92 µM) | 1 µg/mL (≈ 2.46 µM) | > 32 µg/mL | 4 µg/mL (≈ 9.84 µM) | 4 µg/mL (≈ 9.84 µM) | – |
| CO/N=C(\C(=O)N[C@@H]1C(=O)N2C(C(=O)[O-])=C(C[N+]3(C)CCCC3)CS[C@H]12)c1csc(N)n1 [Cefepime] | – | – | – | – | – | – | – | – | – | – | – | – | – | – | – | – | – | – | MIC [18]: > 32 µg/mL; MIC [19]: > 32 µg/mL; MIC [20]: 32 µg/mL; MIC [21]: > 32 µg/mL |
| O=C(NNC(=O)[C@@H]1CC[C@@H]2CN1C(=O)N2OS(=O)(=O)O)[C@@H]1CCCN1 [Example 1, trans-sulfuric acid mono-[2-(N′—[(S)-pyrrolidin-2-carbonyl]-hydrazinocarbonyl)-7-oxo-1,6-diaza-bicyclo[3.2.1]oct-6-yl]ester] | 0.25 µg/mL (≈ 0.662 µM) | 0.5 µg/mL (≈ 1.32 µM) | 0.025 µg/mL (≈ 0.0662 µM) | 0.25 µg/mL (≈ 0.662 µM) | 0.5 µg/mL (≈ 1.32 µM) | 16 µg/mL (≈ 42.4 µM) | 0.25 µg/mL (≈ 0.662 µM) | 0.25 µg/mL (≈ 0.662 µM) | 0.5 µg/mL (≈ 1.32 µM) | 0.5 µg/mL (≈ 1.32 µM) | 1 µg/mL (≈ 2.65 µM) | 16 µg/mL (≈ 42.4 µM) | 0.5 µg/mL (≈ 1.32 µM) | 0.5 µg/mL (≈ 1.32 µM) | 0.5 µg/mL (≈ 1.32 µM) | 32 µg/mL (≈ 84.8 µM) | 2 µg/mL (≈ 5.3 µM) | 2 µg/mL (≈ 5.3 µM) | – |
| O=C(NNC(=O)[C@@H]1CC[C@@H]2CN1C(=O)N2OC(F)(F)C(=O)O)[C@@H]1CCCNC1 [Example 5, trans-difluoro-{7-oxo-2-[N′—((R)-piperidin-3-carbonyl)-hydrazinocarbonyl]-1,6-diaza-bicyclo[3.2.1]-oct-6-yloxy}-acetic acid] | 0.25 µg/mL (≈ 0.617 µM) | 1 µg/mL (≈ 2.47 µM) | 0.25 µg/mL (≈ 0.617 µM) | 0.5 µg/mL (≈ 1.23 µM) | 0.25 µg/mL (≈ 0.617 µM) | > 32 µg/mL | 0.5 µg/mL (≈ 1.23 µM) | 0.5 µg/mL (≈ 1.23 µM) | 0.5 µg/mL (≈ 1.23 µM) | 2 µg/mL (≈ 4.93 µM) | 1 µg/mL (≈ 2.47 µM) | > 32 µg/mL | 1 µg/mL (≈ 2.47 µM) | 0.5 µg/mL (≈ 1.23 µM) | 1 µg/mL (≈ 2.47 µM) | > 32 µg/mL | 2 µg/mL (≈ 4.93 µM) | 1 µg/mL (≈ 2.47 µM) | – |
| N#CCC(=O)NNC(=O)[C@@H]1CC[C@@H]2CN1C(=O)N2OS(=O)(=O)[O-].[Na+] [Example 43, Sodium salt of trans-sulfuric acid mono-[2-(N′-(cyano-acetyl)-hydrazinocarbonyl)-7-oxo-1,6-diaza-bicyclo[3.2.1]oct-6-yl]ester] | 2 µg/mL | 1 µg/mL | 1 µg/mL | 8 µg/mL | 1 µg/mL | > 32 µg/mL | 0.5 µg/mL | 1 µg/mL | 1 µg/mL | 1 µg/mL | 4 µg/mL | > 32 µg/mL | 1 µg/mL | 1 µg/mL | 2 µg/mL | > 32 µg/mL | 1 µg/mL | 8 µg/mL | – |
